Measured values taken from ChEMBL document CHEMBL5113434, “Discovery of novel Thieno[2,3-d]imidazole derivatives as agonists of human STING for antitumor immunotherapy using systemic administration” (Eur J Med Chem, 2022).
Each block holds one molecule with its values, some of them ahead of it. Active and inactive are the calls of the source. The calls are words filed in the database; no cut-off is given here.

Legend:
[1] = system: Stimulator of interferon genes protein (Homo sapiens), Q86WV6 [G230A,R293Q]; assay: Binding affinity to human STING AQ mutant assessed as thermal stability by measuring change in melting temperature by differential scanning fluorimetry; details: filed as agonist
Sequence of Stimulator of interferon genes protein (Homo sapiens), Q86WV6 [G230A,R293Q] (Q86WV6 whole entry G230A/R293Q): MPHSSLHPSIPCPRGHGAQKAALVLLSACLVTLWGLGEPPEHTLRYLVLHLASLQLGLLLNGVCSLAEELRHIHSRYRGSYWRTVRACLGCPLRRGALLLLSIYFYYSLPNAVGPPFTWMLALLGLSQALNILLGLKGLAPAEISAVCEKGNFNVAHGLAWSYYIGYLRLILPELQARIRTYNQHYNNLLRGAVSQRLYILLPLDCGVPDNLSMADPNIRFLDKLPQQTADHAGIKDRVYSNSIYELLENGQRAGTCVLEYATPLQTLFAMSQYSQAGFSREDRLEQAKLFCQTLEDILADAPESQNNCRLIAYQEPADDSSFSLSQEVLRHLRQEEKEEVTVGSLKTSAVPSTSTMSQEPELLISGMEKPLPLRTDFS

Mus musculus = organism: Mus musculus; assay: Binding affinity to mouse STING R231 mutant assessed as thermal stability by measuring change in melting temperature by differential scanning fluorimetry; details: filed as agonist
[2] = target: T1, Stimulator of interferon genes protein (Homo sapiens, UniProt Q86WV6); assay: Activation of STING pathway in human THP1-Dual cells assessed as increase in IFNbeta expression level at 0.01 to 1 uM measured for 24 hrs by chemiluminescence based analysis; assay type: cell-based; details: filed as activator, dose 0.01-1 µM
Target sequence in this assay (Q86WV6 whole entry): as the sequence (Q86WV6 whole entry G230A/R293Q) above, with A230G, Q293R counted along it

[3] = target: T1, Stimulator of interferon genes protein; assay: Activation of STING pathway in human THP1-Dual cells assessed as increase in IRF3 phosphorylation at 0.01 to 1 uM measured for 4 hrs by immunoblotting analysis; assay type: cell-based; details: filed as activator, dose 0.01-1 µM
Target sequence in this assay (Q86WV6 whole entry): as the sequence (Q86WV6 whole entry G230A/R293Q) above, with A230G, Q293R counted along it

[4] = target: T1, Stimulator of interferon genes protein; assay: Agonist activity at human STING in human THP1-Dual cells assessed as activation of ISG signaling pathway measured after 24 hrs by Quanti-luc reagent based assay; assay type: cell-based; details: filed as agonist, dose 0.0001-1 µM, DDE = dose-dependent effect
Target sequence in this assay (Q86WV6 whole entry): as the sequence (Q86WV6 whole entry G230A/R293Q) above, with A230G, Q293R counted along it

4T1 [5] = assay: Antitumour activity against mouse 4T1 cells implanted in BALB/c mouse assessed as tumor growth inhibition at 10 mg/kg, iv administered on day 1,4,7 and measured for 20 days relative to control; assay type: functional; details: 4T1, 480 h, time 20 day, read-out: TGI
CT26 [6] = assay: Antitumour activity against mouse CT26 cells implanted in BALB/c mouse assessed as suppression of tumor growth at 10 mg/kg, iv administered on day 1,4,7 and measured for 20 days; assay type: functional, organism-based; details: time 20.0 day
[7] = target: T1, Stimulator of interferon genes protein; assay: Binding affinity to His6-tagged human wild type STING R232 variant by homogeneous time-resolved fluorescence assay
Target sequence in this assay (Q86WV6 whole entry, looked up, change not shown): as the sequence (Q86WV6 whole entry G230A/R293Q) above, with A230G, Q293R counted along it

[8] = Half life in BALB/c mouse at 1 mg/kg, iv measured up to 24 hrs by UPLC-MS/MS analysis; assay type: ADME, organism-based; details: in vivo
CT26 [9] = assay: Antitumor immunity against mouse CT26 cells implanted in BALB/c mouse assessed as increase in IP-10 level in plasma at 10 mg/kg, iv administered on day 1,4,7 for 20 days and measured 6 hrs post last dose; assay type: functional, organism-based; details: time 20.0 day
[10] = target: T1, Stimulator of interferon genes protein; assay: Activation of STING pathway in human THP1-Dual cells assessed as increase in IP-10 expression level at 0.01 to 1 uM measured for 24 hrs by chemiluminescence based analysis; assay type: cell-based; details: filed as activator, dose 0.01-1 µM
Target sequence in this assay (Q86WV6 whole entry): as the sequence (Q86WV6 whole entry G230A/R293Q) above, with A230G, Q293R counted along it

[11] = target: T1, Stimulator of interferon genes protein; assay: Activation of STING pathway in human 293T-Dual hSTING-R232 cells assessed as increase in IFNbeta expression level measured for 24 hrs by SEAP reporter based Quanti-luc assay; assay type: cell-based; details: filed as activator, dose 0.01-1 µM, DDE = dose-dependent effect
Target sequence in this assay (Q86WV6 whole entry): as the sequence (Q86WV6 whole entry G230A/R293Q) above, with A230G, Q293R counted along it

[12] = target: T1, Stimulator of interferon genes protein; assay: Activation of STING pathway in human 293T-Dual hSTING-R232 cells assessed as increase in ISG expression level measured for 24 hrs by SEAP reporter based Quanti-luc assay; assay type: cell-based; details: filed as activator, dose 0.01-1 µM, DDE = dose-dependent effect
Target sequence in this assay (Q86WV6 whole entry): as the sequence (Q86WV6 whole entry G230A/R293Q) above, with A230G, Q293R counted along it

[13] = Observed clearance in BALB/c mouse at 1 mg/kg, iv measured up to 24 hrs by UPLC-MS/MS analysis; assay type: ADME, organism-based; details: in vivo
[14] = system: Stimulator of interferon genes protein (Homo sapiens), Q86WV6 [UNDEFINED MUTATION]; assay: Binding affinity to human STING R232 mutant assessed as thermal stability by measuring change in melting temperature by differential scanning fluorimetry; details: filed as agonist
Sequence of Stimulator of interferon genes protein (Homo sapiens), Q86WV6 [UNDEFINED MUTATION] (Q86WV6 whole entry, looked up, change not shown): as the sequence (Q86WV6 whole entry G230A/R293Q) above, with A230G, Q293R counted along it

[15] = target: T1, Stimulator of interferon genes protein; assay: Agonist activity at STING in human THP1-Dual cells assessed as fold change in ISG activation at 10 uM incubated for 24 hrs by Quanti-luc reagent based assay relative to control; assay type: cell-based; details: filed as agonist
[16] = target: T1, Stimulator of interferon genes protein; assay: Activation of STING pathway in human 293T-Dual hSTING-H232 cells assessed as increase in ISG expression level measured for 24 hrs by SEAP reporter based Quanti-luc assay; assay type: cell-based; details: filed as activator, dose 0.01-1 µM, DDE = dose-dependent effect
Homo sapiens = organism: Homo sapiens; assay: Binding affinity to human STING H232 mutant assessed as thermal stability by measuring change in melting temperature by differential scanning fluorimetry; details: filed as agonist
[17] = AUClast in BALB/c mouse at 1 mg/kg, iv measured up to 24 hrs by UPLC-MS/MS analysis; assay type: ADME, organism-based; design: time < 24 hrs, dose 1 mg/kg, route iv; details: in vivo
[18] = target: T2, Stimulator of interferon genes protein (Mus musculus, UniProt Q3TBT3); assay: Agonist activity at STING in mouse RAW-Lucia ISG cells assessed as ISG activation incubated for 24 hrs by Quanti-luc reagent based assay; assay type: cell-based
T2 sequence (Q3TBT3 whole entry): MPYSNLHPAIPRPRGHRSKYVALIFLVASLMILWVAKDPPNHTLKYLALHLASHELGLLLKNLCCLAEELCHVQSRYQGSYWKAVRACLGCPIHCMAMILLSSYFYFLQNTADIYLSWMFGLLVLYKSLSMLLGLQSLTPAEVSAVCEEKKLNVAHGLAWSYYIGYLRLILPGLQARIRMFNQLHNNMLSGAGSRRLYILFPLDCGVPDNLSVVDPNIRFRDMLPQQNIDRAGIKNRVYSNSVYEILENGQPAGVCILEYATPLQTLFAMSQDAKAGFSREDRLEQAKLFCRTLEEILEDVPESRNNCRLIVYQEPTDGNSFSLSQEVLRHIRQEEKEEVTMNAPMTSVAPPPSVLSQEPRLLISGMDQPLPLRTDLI

[19] = target: T1, Stimulator of interferon genes protein; assay: Agonist activity at STING in human THP1-Dual cells assessed as ISG activation incubated for 24 hrs by Quanti-luc reagent based assay; assay type: cell-based
CT26 [20] = assay: Antitumor immunity against mouse CT26 cells implanted in BALB/c mouse assessed as increase in IP-10 level in plasma at 5 mg/kg, IT administered on day 1,4,7 for 20 days and measured 6 hrs post last dose; assay type: functional, organism-based; details: time 20.0 day
[21] = target: T3, Stimulator of interferon genes protein (Mus musculus) (UniProt Q3TBT3); assay: Agonist activity at STING in mouse RAW-Lucia ISG cells assessed as fold change in ISG activation at 50 uM incubated for 24 hrs by Quanti-luc reagent based assay relative to control; assay type: cell-based; details: filed as agonist
T3 sequence (whole entry): T2 sequence (Q3TBT3 whole entry)

[22] = target: T1, Stimulator of interferon genes protein; assay: Activation of STING pathway in human THP1-Dual cells assessed as increase in TBK1 phosphorylation at 0.01 to 1 uM measured for 4 hrs immunoblotting analysis; assay type: cell-based; details: filed as activator, dose 0.01-1 µM
CT26 [23] = assay: Antitumour activity against mouse CT26 cells implanted in BALB/c mouse assessed as suppression of tumor growth at 5 mg/kg, IT administered on day 1,4,7 and measured for 20 days; assay type: functional, organism-based; details: time 20.0 day
[24] = target: T1, Stimulator of interferon genes protein; assay: Agonist activity at human STING in human THP1-Dual cells assessed as activation of NF-kappB signaling pathway measured after 24 hrs by Quanti-luc reagent based assay; assay type: cell-based; details: filed as agonist, dose 0.0001-1 µM, DDE = dose-dependent effect
CT26 [25] = assay: Antitumor immunity against mouse CT26 cells implanted in BALB/c mouse assessed as increase in IFN-beta level in plasma at 10 mg/kg, iv administered on day 1,4,7 for 20 days and measured 6 hrs post last dose; assay type: functional, organism-based; details: time 20.0 day
[26] = Observed volume of distribution at steady state in BALB/c mouse at 1 mg/kg, iv measured up to 24 hrs by UPLC-MS/MS analysis; assay type: ADME, organism-based; details: in vivo, read-out: Vdss
[27] = Observed AUC infinity in BALB/c mouse at 1 mg/kg, iv measured up to 24 hrs by UPLC-MS/MS analysis; assay type: ADME, organism-based; design: dose 1 mg/kg, time < 24 hrs, route iv; details: in vivo
[28] = system: Stimulator of interferon genes protein (Homo sapiens), Q86WV6 [R293Q]; assay: Binding affinity to human STING 293Q mutant assessed as thermal stability by measuring change in melting temperature by differential scanning fluorimetry; details: filed as agonist
Sequence of Stimulator of interferon genes protein (Homo sapiens), Q86WV6 [R293Q] (Q86WV6 whole entry R293Q): as the sequence (Q86WV6 whole entry G230A/R293Q) above, with A230G counted along it

[29] = target: T1, Stimulator of interferon genes protein; assay: Activation of STING pathway in human 293T-Dual hSTING-H232 cells assessed as increase in IFNbeta expression level measured for 24 hrs by SEAP reporter based Quanti-luc assay; assay type: cell-based; details: filed as activator, dose 0.01-1 µM, DDE = dose-dependent effect
[30] = target: T3, Stimulator of interferon genes protein (Mus musculus); assay: Activation of STING pathway in mouse RAW-Lucia ISG cells assessed as increase in ISG expression level at 12.5 to 50 uM measured for 24 hrs by Quanti-luc reagent based assay; assay type: cell-based; details: filed as activator, dose 12.5-50 µM
4T1 [31] = assay: Antitumour activity against mouse 4T1 cells implanted in BALB/c mouse assessed as tumor growth inhibition at 20 mg/kg, iv administered on day 1,4,7 and measured for 20 days relative to control; assay type: functional; details: 4T1, 480 h, time 20 day, read-out: TGI
[32] = Toxicity in BALB/c mouse xenografted with 4T1 cells assessed as body weight loss at 10 to 20 mg/kg, iv administered on day 1,4,7 and measured for 20 days; assay type: organism-based; details: in vivo, 480 h, dose 10-20 mg/kg, time 20 day
CT26 [33] = assay: Antitumor immunity against mouse CT26 cells implanted in BALB/c mouse assessed as increase in IFN-beta level in plasma at 5 mg/kg, IT administered on day 1,4,7 for 20 days and measured 6 hrs post last dose; assay type: functional, organism-based; details: time 20.0 day
[34] = target: T1, Stimulator of interferon genes protein; assay: Agonist activity at wild type human STING in HEK cells; assay type: cell-based
[35] = target: T1, Stimulator of interferon genes protein; assay: Agonist activity at STING (unknown origin)

Structure (SMILES): CCn1nc(C)cc1C(=O)Nc1nc2cc(C(N)=O)cc(OC)c2n1C/C=C/Cn1c(NC(=O)c2cc(C)nn2CC)nc2cc(C(N)=O)cc(OCCCN3CCOCC3)c21
half-life [8]: 1.14 h | clearance [13]: 26 mL/min/kg | AUC(0-t) at 24 h [17]: 657 ng·h/mL | Vd [26]: 0.965 L/kg | AUC(0-inf) [27]: 666 ng·h/mL

Structure (SMILES): O=C(NCc1ccco1)c1ccc2c(c1)N(Cc1c(F)cccc1Cl)C(=O)CS2
EC50 [34]: 2490 nM

Structure (SMILES): O=C(c1ccc([N+](=O)[O-])cc1)N1CCc2cc(S(=O)(=O)N3C[C@@H](c4ccccc4)NC3=O)ccc21
EC50 [35]: 180 nM

Structure (SMILES): CCn1nc(C)cc1C(=O)Nc1nc2cc(C(N)=O)sc2n1C/C=C/Cn1c(NC(=O)c2cc(C)nn2CC)nc2cc(C(N)=O)cc(O[C@H]3CCOC3)c21
fold change (FC) [15]: 80.3 | EC50 [18]: > 100000 nM | EC50 [19]: 1860 nM | fold change (FC) [21]: 1.5

Structure (SMILES): CCn1nc(C)cc1C(=O)Nc1nc2cc(C(N)=O)sc2n1C/C=C/Cn1c(NC(=O)c2cc(C)nn2CC)nc2cc(C(N)=O)cc(OC3COC3)c21
fold change (FC) [15]: 49.2 | EC50 [18]: > 100000 nM | EC50 [19]: 1560 nM | fold change (FC) [21]: 10.2

Further lines, with some results ahead:

ΔTm [1]: 12.4 °C | ΔTm (Mus musculus): 13.3 °C | Activity [2]: Active | Activity [3]: Active | Activity [4]: Dde | IC50 [7]: 0.6 nM | half-life [8]: 1.62 h | Activity [10]: Active | Activity [11]: Dde | Activity [12]: Dde | clearance [13]: 26.3 mL/min/kg | ΔTm [14]: 6.6 °C | fold change (FC) [15]: 145 | Activity [16]: Dde | ΔTm (Homo sapiens): 12.8 °C | AUC(0-t) at 24 h [17]: 701 ng·h/mL | EC50 [18]: 32800 nM | EC50 [19]: 1.2 nM | fold change (FC) [21]: 20.7 | Activity [22]: Active | Activity [24]: Dde | Vd [26]: 1.52 L/kg | AUC(0-inf) [27]: 711 ng·h/mL | ΔTm [28]: 11.1 °C | Activity [29]: Dde | Activity [30]: Active
Structure (SMILES): CCn1nc(C)cc1C(=O)Nc1nc2cc(C(N)=O)sc2n1C/C=C/Cn1c(NC(=O)c2cc(C)nn2CC)nc2cc(C(N)=O)cc(OCCCN3CCOCC3)c21
inhibition in vivo at 10 mg/kg (4T1 [5]): 61% | Activity (CT26 [6]): Active | Activity (CT26 [9]): Active | Activity (CT26 [20]): Active | Activity (CT26 [23]): Active | Activity (CT26 [25]): Active | inhibition in vivo at 20 mg/kg (4T1 [31]): 74% | Activity [32]: Non-Toxic | Activity (CT26 [33]): Active

fold change (FC) [15]: 11 | fold change (FC) [21]: 1.39
Structure (SMILES): CCn1nc(C)cc1C(=O)Nc1nc2cc(NC(=O)CN)ccc2n1CCCCn1c(NC(=O)c2cc(C)nn2CC)nc2cc(C(N)=O)cc(OCCCN3CCOCC3)c21

fold change (FC) [15]: 141 | EC50 [18]: > 100000 nM | EC50 [19]: 280 nM | fold change (FC) [21]: 12.6
Structure (SMILES): CCn1nc(C)cc1C(=O)Nc1nc2cc(C(N)=O)sc2n1C/C=C/Cn1c(NC(=O)c2cc(C)nn2CC)nc2cc(C(N)=O)cc(OCC3CC3)c21
